In test [1] the test system is CD3/CD28 induced IL-2 in human T-Blasts. Nature of the test: T-Blasts CD3/CD28 induced IL-2 assay. It is filed as cell-based. The note with it: read-out: CD3/CD28-stimulated IL2 in T-blasts EC50. The method, then:
T-Blasts CD3/CD28 Induced IL-2 Assay
Human T-Blasts are generated using PHA following standard protocols. T-Blasts are freeze aliquoted and vials thawed as required. […] Seed 2×10^5/100 μL cell suspension per well in flat bottomed 96 well plate. Compound dilutions are prepared from 100% DMSO stocks. A total of 8 serial dilutions are made (1/3 in 100% DMSO). Compounds are diluted 1/50 in growth medium to prepare 4× stocks of each tested concentration. 50 μL from each 4× stock concentration is added to the 100 μL cell suspension and incubated for 30 minutes prior stimulus addition. A 4× stimulus stock is prepared using anti-CD3+anti-CD28 antibodies. Antibody mix is added to the cell/compounds suspension in 50 μL at 5 μg/mL final concentration. Compounds are tested in duplicates. Plates are transferred to 37° C./CO2 incubator for 24 hours. After incubation 130 μL of supernatant is collected for IL-2 determination while MTT toxicity analysis is performed on remaining cells/medium.

A further test deals with T1, PKCθ (Homo sapiens, UniProt Q04759).
T1 construct: His6; purchased Millipore; host or cells: baculovirus in Sf21 cells
Nature of the test: In vitro enzyme assay (time-resolved fluorescence kinase assay), PKCθ, 100 μM ATP. The class given is biochemical. The procedure: (§1) PKC kinase activity was assayed by time-resolved fluorescence in vitro kinase assay. Unless otherwise indicated, all reagents used for enzyme assays were obtained from Sigma. Specifically, 5 μL N- or C-terminal His6-tagged, recombinant, human PKC, expressed by baculovirus in Sf21 cells (Millipore) was mixed with 5 μL inhibitor (various concentrations, 5% final DMSO), 5 μL Bio-cdc peptide (Biotin-Ahx-[…], 2 μM final concentration, New England Peptide) and 5 μL of ATP (100 μM or 1000 μM final concentration) in 1× reaction buffer, 20 μL final volume.
(§2) Following a sixty minute incubation at room temperature, the reaction was quenched with 5 μL of 0.5 M EDTA pH 7.5.
(§3) Background counts from a minus enzyme control is subtracted from all data. Data (after background correction) are converted to percent activity by dividing by the signal obtained from PKC without drug sample.

The target in the next test is T2, PKCα (Homo sapiens, UniProt P17252).
T2 construct: His6; purchased Millipore; host or cells: baculovirus in Sf21 cells
Nature of the test: In vitro enzyme assay (time-resolved fluorescence kinase assay), PKCα, 100 μM ATP. The class given is biochemical. The method, then:
as §1, §2, §3

The mark [2] stands for this setting: 100 μM ATP, read-out: PKCα enzyme IC50.

SMILES strings stand for the structures. Where a name gives a salt, the structure may show the parent alone. Read-outs that look alike come from different tables or passages of the source.

T1 sequence (Q04759 whole entry): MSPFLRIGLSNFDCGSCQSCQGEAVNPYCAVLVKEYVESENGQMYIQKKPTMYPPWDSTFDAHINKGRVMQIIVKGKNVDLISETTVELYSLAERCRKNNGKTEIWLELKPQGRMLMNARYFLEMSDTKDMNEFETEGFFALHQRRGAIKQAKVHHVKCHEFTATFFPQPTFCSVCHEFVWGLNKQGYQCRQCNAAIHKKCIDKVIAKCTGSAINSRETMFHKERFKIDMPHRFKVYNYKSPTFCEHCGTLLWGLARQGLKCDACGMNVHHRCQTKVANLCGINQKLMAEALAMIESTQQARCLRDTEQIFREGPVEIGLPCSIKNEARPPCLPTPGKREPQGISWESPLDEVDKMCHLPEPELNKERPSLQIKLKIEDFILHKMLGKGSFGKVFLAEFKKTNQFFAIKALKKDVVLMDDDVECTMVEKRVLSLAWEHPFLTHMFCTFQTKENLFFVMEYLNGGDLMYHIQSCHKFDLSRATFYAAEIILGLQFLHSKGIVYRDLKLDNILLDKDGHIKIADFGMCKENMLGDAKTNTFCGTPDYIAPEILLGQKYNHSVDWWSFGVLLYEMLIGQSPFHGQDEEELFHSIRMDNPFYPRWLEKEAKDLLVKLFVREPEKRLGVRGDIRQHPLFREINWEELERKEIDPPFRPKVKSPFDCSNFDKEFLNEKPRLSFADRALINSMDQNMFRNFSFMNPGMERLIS

With `C[C@@H]1C(=O)NN=C2COc3cc(-c4ccccc4F)c(N4CCNC[C@@H]4C)cc3N21` [Example 224], the EC50 in test [1] is less than 250 nM. Also, the IC50 is less than 250 nM on PKCθ and 250 to 1000 nM on PKCα (setting [2]).
Regarding `Cc1ccccc1-c1cc2c(cc1N(C)C1(C)CN(C)C1)N1C(=NNC(=O)C1C)CO2` (stereo not drawn) [Example 88], the EC50 in test [1] is less than 250 nM. Further, the IC50 on PKCθ and on PKCα (setting [2]) was less than 250 nM throughout.
On to `C[C@@H]1C(=O)NN=C2COc3cc(-c4ccccc4F)c([C@H]4CCCNCC4)cc3N21` [Example 217], for which, in test [1], the EC50 lay in the range of 250 to 1000 nM. The IC50 is less than 250 nM against PKCθ and 1000 to 10000 nM on PKCα (setting [2]).
Turning to `CC[C@@H]1CNCCN1c1cc2c(cc1-c1ccccc1F)OCC1=NNC(=O)[C@@H](C)N12` [Example 226], in test [1], the EC50 is 250 to 1000 nM. The IC50 against PKCθ is less than 250 nM; at PKCα (setting [2]), 250 to 1000 nM.
For the compound `CC(C)c1cc2c(cc1[C@@H](C)C1(C)CNC1)N1C(=NNC(=O)[C@H]1C)CO2` [Example 133, (R)-7-Isopropyl-4-methyl-6-[(R)-1-(3-methyl-azetidin-3-yl)-ethyl]-2,10-dihydro-9-oxa-1,2,4a-triaza-phenanthren-3-one hydrochloric acid], in test [1], the EC50 fell in the range of 250 to 1000 nM. Also, the results for the 50% inhibitory concentration (IC50) at PKCθ and on PKCα (setting [2]) were 250 to 1000 nM and 1000 to 10000 nM, respectively.
For the compound `Cc1ccccc1-c1cc2c(cc1NC1CNC1)N1C(=NNC(=O)[C@H]1C)CO2` [Example 5], in test [1], the EC50 is less than 250 nM. The values for the IC50 against PKCθ and on PKCα (setting [2]) were less than 250 nM and 1000 to 10000 nM, respectively.
In the case of `C[C@@H]1C(=O)NN=C2COc3cc(-c4ccccc4F)c(N(C)C4(C)CN(CC(C)(C)O)C4)cc3N21` [Example 190], in test [1], the EC50 was less than 250 nM. Also, the results for the IC50 on PKCθ and on PKCα (setting [2]) were less than 250 nM and 250 to 1000 nM, respectively.
Turning to `Cc1cccc(-c2cc3c(cc2N(C)C2(C)CN(C)C2)N2C(=NNC(=O)C2C)CO3)c1` (stereo not drawn) [Example 172], the EC50 in test [1] is less than 250 nM. Further, the IC50 was less than 250 nM against PKCθ and 250 to 1000 nM on PKCα (setting [2]).
As to `COCc1ccccc1-c1cc2c(cc1N(C)C1(C)CN(C)C1)N1C(=NNC(=O)[C@H]1C)CO2` [Example 181], in test [1], the EC50 was in the range of 250 to 1000 nM. Moreover, the half-maximal inhibitory concentration (IC50) is less than 250 nM against PKCθ and 1000 to 10000 nM at PKCα (setting [2]).
The matching figures for `CC1C(=O)NN=C2COc3cc(-c4ccccc4)c(N(C)C4(C)CN(C5CCOCC5)C4)cc3N21` (stereo not drawn) [Example 94]: less than 250 nM, less than 250 nM and 250 to 1000 nM.
The matching figures for `C[C@@H]1CNCC[C@@H]1c1cc2c(cc1-c1ccccc1CO)OCC1=NNC(=O)[C@@H](C)N12` [Example 204]: 250 to 1000 nM, less than 250 nM and 1000 to 10000 nM.
Turning to `C[C@@H]1C(=O)NN=C2COc3cc(-c4ccccc4F)c(N(C)C4(C)CN(C5COC5)C4)cc3N21` [Example 194], in test [1], the EC50 was in the range of 250 to 1000 nM. Moreover, the IC50 is less than 250 nM against PKCθ and 250 to 1000 nM at PKCα (setting [2]).
For the compound `C[C@@H]1C(=O)NN=C2COc3cc(-c4ccccc4F)c([C@H]4CCNC4)cc3N21` [Example 214], in test [1], the EC50 was less than 250 nM. For the same compound, the figures for the IC50 on PKCθ and at PKCα (setting [2]) were less than 250 nM and 1000 to 10000 nM, respectively.
Turning to `Cc1cc(F)ccc1-c1cc2c(cc1NC1CNC1)N1C(=NNC(=O)C1C)CO2` (racemic) [Example 13], the EC50 in test [1] is less than 250 nM. Further, the IC50 on PKCθ is less than 250 nM; on PKCα (setting [2]), 1000 to 10000 nM.
As to `CC1C(=O)NN=C2COc3cc(F)c(C4CCNCC4)cc3N21` (stereo not drawn) [Example 72], the EC50 in test [1] lay within 1000 to 10000 nM. In addition, the IC50 against PKCθ was in the range of 250 to 1000 nM; on PKCα (setting [2]), 1000 to 10000 nM.
For the compound `C[C@@H]1C(=O)NN=C2COc3cc4ccn(C5(C)CN(C)C5)c4cc3N21` [Example 160, (R)-10-(1,3-Dimethyl-azetidin-3-yl)-1-methyl-3,5-dihydro-10H-6-oxa-3,4,10,11b-tetraaza-cyclopenta[b]phenanthren-2-one hydrochloride], the EC50 in test [1] was less than 250 nM. In addition, the IC50 was less than 250 nM on PKCθ and 250 to 1000 nM on PKCα (setting [2]).
On to `CC1C(=O)NN=C2COc3cc(F)c(NC4(C)CNC4)cc3N21` (stereo not drawn) [Example 84, 8-Fluoro-1-methyl-9-((3-methylazetidin-3-yl)amino)-3,5-dihydrobenzo[5,6][1,4]oxazino[3,4-c][1,2,4]triazin-2(1H)-one trifluoroacetic acid], for which the EC50 in test [1] was less than 250 nM. Further, the values for the IC50 against PKCθ and at PKCα (setting [2]) were less than 250 nM and 1000 to 10000 nM, respectively.
In the case of `C[C@@H]1C(=O)NN=C2COc3cc(-c4c(F)cccc4F)c([C@@H]4CCN(C)C[C@@H]4C)cc3N21` [Example 245, (R)-7-(2,6-Difluoro-phenyl)-6-((3R,4R)-1,3-dimethyl-piperidin-4-yl)-4-methyl-2,10-dihydro-9-oxa-1,2,4a-triaza-phenanthren-3-one], the EC50 in test [1] is less than 250 nM. Moreover, on PKCα (setting [2]), the IC50 lay within 250 to 1000 nM.
For the compound `COc1cccc(-c2cc3c(cc2[C@@H]2CCN(C)C[C@@H]2C)N2C(=NNC(=O)[C@H]2C)CO3)c1F` [Example 237, (R)-6-((3R,4R)-1,3-Dimethyl-piperidin-4-yl)-7-(2-fluoro-3-methoxy-phenyl)-4-methyl-2,10-dihydro-9-oxa-1,2,4a-triaza-phenanthren-3-one], in test [1], the EC50 is less than 250 nM. For the same compound, the IC50 against PKCθ was less than 250 nM.
With `COc1ccc(F)c(-c2cc3c(cc2[C@@H]2CCN(C)C[C@@H]2C)N2C(=NNC(=O)[C@H]2C)CO3)c1` [Example 241], the EC50 in test [1] is less than 250 nM. The same compound yielded an IC50 against PKCθ of less than 250 nM.
Take `Cc1cc2c(cc1NC1(C)CNC1)N1C(=NNC(=O)C1C)CO2` (stereo not drawn) [Example 98, 4,7-Dimethyl-6-(3-methyl-azetidin-3-ylamino)-2,10-dihydro-9-oxa-1,2,4a-triaza-phenanthren-3-one trifluoroacetic acid]: the IC50 against PKCθ and at PKCα (setting [2]) was 1000 to 10000 nM in each case.
Turning to `C[C@@H]1C(=O)NN=C2COc3cc(C(F)(F)F)c(NC4CNC4)cc3N21` (single isomer, unassigned) [Example 53-2, trifluoroacetic acid], the EC50 in test [1] is less than 250 nM. The concentration for half-maximal inhibition (IC50) on PKCα (setting [2]) lay in the range of 1000 to 10000 nM.
In the same order, the values of `Cc1ccc(-c2cc3c(cc2[C@@H]2CCN(C)C[C@@H]2C)N2C(=NNC(=O)[C@H]2C)CO3)c(F)c1` [Example 200] are less than 250 nM and less than 250 nM.
Turning to `C[C@@H]1C(=O)NN=C2COc3cc(C(F)(F)F)c([C@H](C)C4(C)CNC4)cc3N21` (single isomer, unassigned) [Example 147-2, trifluoroacetic acid], the half-inhibitory concentration (IC50) against PKCθ and on PKCα (setting [2]) was 1000 to 10000 nM in each case.
For `CC1C(=O)NN=C2COc3cc(C(F)(F)F)c(NC4(C)CNC4)cc3N21` (stereo not drawn) [Example 81, 4-Methyl-6-(3-methyl-azetidin-3-ylamino)-7-trifluoromethyl-2,10-dihydro-9-oxa-1,2,4a-triaza-phenanthren-3-one], the EC50 in test [1] is 250 to 1000 nM. Moreover, the IC50 at PKCα (setting [2]) was 1000 to 10000 nM.
In the same order, the values of `C[C@H]1C(=O)NN=C2COc3cc(C(F)(F)F)c(NC4CNC4)cc3N21` (single isomer, unassigned) [Example 53-1, trifluoroacetic acid] are 250 to 1000 nM and 1000 to 10000 nM.
With `C[C@H]1C(=O)NN=C2COc3cc4ccn([C@]5(C)CCNC5)c4cc3N21` [Example 165, (S)-1-Methyl-10-((R)-3-methyl-pyrrolidin-3-yl)-3,5-dihydro-10H-6-oxa-3,4,10,11b-tetraaza-cyclopenta[b]phenanthren-2-one], the IC50 at PKCθ lay in the range of 250 to 1000 nM; at PKCα (setting [2]), 1000 to 10000 nM.
As for `CC1NCC1Nc1ccc2c(c1)N1C(=NNC(=O)C1C)CO2` (stereo not drawn) [Example 118, 4-Methyl-6-(2-methyl-azetidin-3-ylamino)-2,10-dihydro-9-oxa-1,2,4a-triaza-phenanthren-3-one trifluoroacetic acid], the IC50 against PKCθ lay within 250 to 1000 nM; at PKCα (setting [2]), 1000 to 10000 nM.
Consider `COc1ccc(-c2cc3c(cc2[C@@H]2CCN(C)C[C@@H]2C)N2C(=NNC(=O)[C@H]2C)CO3)c(F)c1` [Example 201], for which the EC50 in test [1] is less than 250 nM. Moreover, at PKCα, the IC50 is less than 250 nM.
Consider `C[C@@H]1C(=O)NN=C2COc3cc(C(F)(F)F)c(NC4(C)CNC4)cc3N21` (single isomer, unassigned) [Example 100-1, trifluoroacetic acid], for which the EC50 in test [1] was less than 250 nM. For the same compound, the IC50 on PKCα (setting [2]) fell in the range of 1000 to 10000 nM.
In the same order, the values of `C[C@H]1C(=O)NN=C2COc3cc(C(F)(F)F)c(NC4(C)CNC4)cc3N21` [Example 100-2, (S)-1-Methyl-9-((3-methylazetidin-3-yl)amino)-8-(trifluoromethyl)-3,5-dihydrobenzo[5,6][1,4]oxazino[3,4-c][1,2,4]triazin-2(1H)-one trifluoacetic acid salt] are 250 to 1000 nM and 250 to 1000 nM.
Consider `CC1C(=O)NN=C2COc3cc(-c4ccccc4F)c(N4CC5CCC4CN5)cc3N21` (stereo not drawn) [Example 229], for which the IC50 on PKCθ lay within 250 to 1000 nM; at PKCα (setting [2]) it was 1000 to 10000 nM.
